pIC50: −log10 of the molar value.
Columns and labels:
[1] = biological target: human A2b adenosine receptor (Homo sapiens (Human), UniProt P29275); assay: A2B antagonism in cAMP cell-based assay (LANCE cAMP, HEK293 cells, 600 nM adenosine); conditions: for pIC50: values marked *: cAMP cell-based assay
[2] = biological target: human A2a adenosine receptor (Homo sapiens (Human), UniProt P29274); assay: A2a receptor affinity radioligand binding assay ([3H] SCH58261, membranes from HEK293 or CHO cells); conditions: unstarred values: radioligand binding
In short: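 Displacement of tritiated SCH58261 (working dilution 4 nM) from recombinant human A2a receptor membranes (HEK293 or CHO), 60 min at room temperature in Tris pH 7.4/MgCl2 buffer after 15–30 min compound preincubation. Scintillation counting after filtration; normalized percent effect fitted 4-parameter logistic for IC50.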

Chain of human A2a adenosine receptor (P29274 whole entry): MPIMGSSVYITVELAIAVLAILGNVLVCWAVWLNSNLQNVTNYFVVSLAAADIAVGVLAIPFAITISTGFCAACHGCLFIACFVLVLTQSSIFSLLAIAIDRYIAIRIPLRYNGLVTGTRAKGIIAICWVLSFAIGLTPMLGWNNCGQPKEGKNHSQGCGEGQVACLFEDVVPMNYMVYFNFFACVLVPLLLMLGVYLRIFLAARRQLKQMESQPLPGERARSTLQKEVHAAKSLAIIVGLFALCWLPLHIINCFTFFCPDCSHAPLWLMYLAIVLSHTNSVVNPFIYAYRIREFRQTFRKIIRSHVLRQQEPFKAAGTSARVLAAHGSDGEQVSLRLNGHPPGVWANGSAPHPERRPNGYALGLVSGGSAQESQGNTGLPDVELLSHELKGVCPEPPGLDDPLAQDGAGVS
Chain of human A2b adenosine receptor (P29275 whole entry): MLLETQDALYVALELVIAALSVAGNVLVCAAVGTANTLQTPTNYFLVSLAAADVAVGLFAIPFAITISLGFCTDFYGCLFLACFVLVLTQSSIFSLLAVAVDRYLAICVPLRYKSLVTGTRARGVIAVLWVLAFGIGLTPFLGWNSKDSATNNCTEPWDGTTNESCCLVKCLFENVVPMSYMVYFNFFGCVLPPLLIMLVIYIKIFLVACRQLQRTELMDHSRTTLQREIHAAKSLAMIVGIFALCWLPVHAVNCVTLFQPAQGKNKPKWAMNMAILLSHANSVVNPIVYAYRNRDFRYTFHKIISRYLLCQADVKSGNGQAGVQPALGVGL

| Compound | pIC50 [1] | pIC50 [2] | *A2B cAMP % inh. @ 10000 nM ([1]; @ 10000 nM, marked *) [% inh. @ 10000 nM*] |
| --- | --- | --- | --- |
| COc1cccc2c1nc(N)n1nc([C@@H]3CCCN(c4ccc(C(F)(F)F)nc4)C3)nc21 [Example 112, (R)-7-methoxy-2-(1-(6-(trifluoromethyl)pyridin-3-yl)piperidin-3-yl)-[1,2,4]triazolo[1,5-c]quinazolin-5-amine] | 6.67 | 8.46 |  |
| COc1ccc2c(c1)nc(N)n1nc([C@H]3C[C@H](C(F)(F)F)CN(c4cnn(CC(C)(C)O)c4)C3)nc21 (single isomer, unassigned) [Example 218A, 1-(4-((3S,5S or 3R,5R)-3-(5-amino-8-methoxy-[1,2,4]triazolo[1,5-c]quinazolin-2-yl)-5-(trifluoromethyl)piperidin-1-yl)-1H-pyrazol-1-yl)-2-methylpropan-2-ol] |  | 7.29 | 9 |
| COc1ccc2c(c1)nc(N)n1nc([C@@H]3CCCN(c4cnn([C@@H](C)[C@@H](C)O)c4)C3)nc21 [Example 221A, (2R,3S)-3-(4-((R)-3-(5-amino-8-methoxy-[1,2,4]triazolo[1,5-c]quinazolin-2-yl)piperidin-1-yl)-1H-pyrazol-1-yl)butan-2-ol] | 7.21 | 8.72 |  |
| Nc1nc2c(OC(F)F)cccc2c2nc([C@@H]3CCCN(c4cnn(C5CC5)c4)C3)nn12 [Example 125, (R)-2-(1-(1-cyclopropyl-1H-pyrazol-4-yl)piperidin-3-yl)-7-(difluoromethoxy)-[1,2,4]triazolo[1,5-c]quinazolin-5-amine] | 5.89 | 8.11 |  |
| COc1cccc2c1nc(N)n1nc(C3CCC(C)N(c4cnn(CC(F)(F)F)c4)C3)nc21 (single isomer, unassigned) [Example 142A, 7-methoxy-2-((3S,6S or 3R,6R)-6-methyl-1-(1-(2,2,2-trifluoroethyl)-1H-pyrazol-4-yl)piperidin-3-yl)-[1,2,4]triazolo[1,5-c]quinazolin-5-amine] | 6.01 | 7.27 |  |
| COc1cccc2c1nc(N)n1nc([C@@H]3CCCN(c4cnn(CC5(O)CCCC5)c4)C3)nc21 [Example 41, (R)-1-((4-(3-(5-amino-7-methoxy-[1,2,4]triazolo[1,5-c]quinazolin-2-yl)piperidin-1-yl)-1H-pyrazol-1-yl)methyl)cyclopentan-1-ol] | 7.65 | 9.10 |  |
| CC[C@H]1CC[C@@H](c2nc3c4ccc(OC)cc4nc(N)n3n2)CN1c1cnn(C(C)(C)CO)c1 [Example 215D] | 6.14 | 7.68 |  |
| COc1cccc2c1nc(N)n1nc([C@@H]3CCCN(c4ccc(=O)n(CC(F)(F)F)c4C)C3)nc21 [Example 94, (R)-5-(3-(5-amino-7-methoxy-[1,2,4]triazolo[1,5-c]quinazolin-2-yl)piperidin-1-yl)-6-methyl-1-(2,2,2-trifluoroethyl)pyridin-2(1H)-one] | 6.68 | 8.62 |  |
| COc1cccc2c1nc(N)n1nc([C@@H]3CCCN(c4cnn5ncccc45)C3)nc21 [Example 12, (R)-7-methoxy-2-(1-(pyrazolo[1,5-b]pyridazin-3-yl)-piperidin-3-yl)-[1,2,4]triazolo[1,5-c]quinazolin-5-amine] | 6.98 | 9.22 |  |
| COc1cccc2c1nc(N)n1nc(C3CCC(C)N(c4cnn(C5CC5)c4)C3)nc21 (single isomer, unassigned) [Example 141B] | 5.58 | 7.55 |  |
| COc1cccc2c1nc(N)n1nc([C@@H]3CCCN(c4ccn(CC(C)(C)O)n4)C3)nc21 [Example 63, (R)-1-(3-(3-(5-amino-7-methoxy-[1,2,4]triazolo[1,5-c]quinazolin-2-yl)piperidin-1-yl)-1H-pyrazol-1-yl)-2-methylpropan-2-ol] | 7.49 | 8.70 |  |
| COc1ccc2c(c1)nc(N)n1nc([C@@H]3CCCN(c4cnn([C@@H](C)[C@H](C)O)c4)C3)nc21 [Example 220A, (2S,3S)-3-(4-((R)-3-(5-amino-8-methoxy-[1,2,4]triazolo[1,5-c]quinazolin-2-yl)piperidin-1-yl)-1H-pyrazol-1-yl)butan-2-ol] | 7.18 | 8.99 |  |

— patent US12263171B2, “7-, 8-, and 10-substituted amino triazolo quinazoline derivatives as adenosine receptor antagonists, pharmaceutical compositions and their use” (Merck Sharp & Dohme LLC, priority 2018, dated 2025)
